# Assay results taken from patent US20200199247A1, “ANTIBODY CONJUGATES OF IMMUNE-MODULATORY COMPOUNDS AND USES THEREOF” (SILVERBACK THERAPEUTICS, INC., priority 2017, published 2020).
# Peptide text beside a SMILES is read from it. * marks the point of attachment. Cbz = O=C(OCc1ccccc1)*
# How the values were obtained:
# [1] = target: T1, TGFβR1 (Homo sapiens, UniProt P36897); experiment: Cellular level of TGFβR1 in normal human lung fibroblasts with or without proteasome inhibitor (western blot); format: cell-based; parameters: endogenous in cells; host or cells: normal human lung fibroblasts
# T1 sequence (P36897 34-503): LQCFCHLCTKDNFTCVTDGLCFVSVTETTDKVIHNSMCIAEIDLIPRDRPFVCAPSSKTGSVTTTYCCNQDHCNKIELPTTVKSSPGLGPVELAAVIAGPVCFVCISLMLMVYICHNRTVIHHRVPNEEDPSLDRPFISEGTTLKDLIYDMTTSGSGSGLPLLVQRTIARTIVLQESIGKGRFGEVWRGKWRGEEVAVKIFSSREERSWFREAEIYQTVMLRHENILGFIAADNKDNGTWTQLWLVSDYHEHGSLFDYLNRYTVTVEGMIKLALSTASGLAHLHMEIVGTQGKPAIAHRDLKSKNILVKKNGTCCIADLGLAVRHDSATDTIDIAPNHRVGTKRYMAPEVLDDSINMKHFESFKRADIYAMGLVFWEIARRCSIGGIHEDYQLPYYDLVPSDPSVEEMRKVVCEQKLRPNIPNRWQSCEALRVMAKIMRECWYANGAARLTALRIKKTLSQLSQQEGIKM
# Protocol: Cells are plated, allowed to adhere, and treated with vehicle, an inhibitor, a PROTAC or a conjugate in the presence or absence of proteasome inhibitor, such as MG-132. After treatment, media is aspirated and cells are rinsed with ice cold PBS. Ice cold lysis buffer (20 mM TrisHCl pH 7.5, 150 mM NaCl, 1% Triton X-100, 2 mM EDTA and 10% glycerol) containing phosphatase and protease inhibitors is added to wells and cells are removed from the plate using a cell scraper. Lysates are transferred to a 1.5 ml tube and rocked for one hour at 4° C. with vortexing every ˜15 minutes. Tubes are spun at 8500×g for 10 minutes and supernatants are drawn into an insulin needle twice. Cell lysates are frozen at […]. Protein concentration is determined using a BCA assay and equal amounts of samples are boiled with reducing loading buffer. The samples are then subjected to electrophoresis on 4-20% polyacrylamide gels which are then transferred to PVDF membranes. […] Loading controls are detected with 1:15000 diluted primary antibody incubation at room temperature for 1 hour with rocking (Tubulin—Abcam, ab7291; Actin—Abcam, ab8224). […]
# Normal human lung fibroblasts were treated with or without proteasome inhibitor MG-132 followed by the addition of DMSO or T-20. Whole cell lysates were prepared and then quantitated with a BCA assay. […] TGFβR1, TGFβR2, and actin were detected using commercially available reagents. […]
# [2] = target: T1, TGFβR1; experiment: TGFβR1 level in HER2-transfected HEK293 cells (western blot); format: cell-based; parameters: Plasmid expressing HER2 was transfected into HEK293 cells; endogenous in cells; host or cells: HEK293 cells transiently transfected with a HER2 plasmid; conditions: 2, 24 and 48 hours of treatment
# Protocol: After treatment, media is aspirated and cells are rinsed with ice cold PBS. Ice cold lysis buffer (20 mM TrisHCl pH 7.5, 150 mM NaCl, 1% Triton X-100, 2 mM EDTA and 10% glycerol) containing phosphatase and protease inhibitors is added to wells and cells are removed from the plate using a cell scraper. Lysates are transferred to a 1.5 ml tube and rocked for one hour at 4° C. with vortexing every ˜15 minutes. Tubes are spun at 8500×g for 10 minutes and supernatants are drawn into an insulin needle twice. Cell lysates are frozen at ˜80° C. Protein concentration is determined using a BCA assay and equal amounts of samples are boiled with reducing loading buffer. […] Loading controls are detected with 1:15000 diluted primary antibody incubation at room temperature for 1 hour with rocking (Tubulin—Abcam, ab7291; Actin—Abcam, ab8224). […]
# Plasmid expressing HER2 was transfected into HEK293 cells using commercially available materials and conditions. […] Whole cell lysates were prepared from cells after 2, 24, or 48 hours incubation and quantitated with a BCA assay. Equal amounts of lysates were run on protein gels, transferred to PVDF, and TGFβR2 was detected using commercially available reagents. To quantitate the amount of protein degradation, the signals on the Western blot were adjusted to actin loading control and data is presented as a percent of matched control.
SMILES,degradation of TGFβR1 ([1]; 5 μM T-20),amount of TGFβR1 protein [2],effect of proteasome inhibitor on T-20 induced degradation of TGFβR1 ([1]; MG132 10 and 50 μM followed by 5 μM T-20)
"Nc1ncc(-c2ccc(CCNC(=O)[C@@H](N)CCCCNC(=O)COc3cccc4c3C(=O)N(C3CCC(=O)NC3=O)C4=O)cc2)nc1C(=O)Nc1cnccc1N1CCOCC1 (stereo partly drawn) [Compound T-20, 3-amino-6-(4-(2-((2S)-2-amino-6-(2-((2-(2,6-dioxopiperidin-3-yl)-1,3-dioxoisoindolin-4-yl)oxy)acetamido)hexanamido)ethyl)phenyl)-N-(4-morpholinopyridin-3-yl)pyrazine-2-carboxamide]",degradation induced by T-20,remained fairly constant,–
"CC(C)C[C@@H](C=O)NC(=O)[C@H](CC(C)C)NC(=O)[C@H](CC(C)C)NC(=O)OCc1ccccc1 [MG-132, reference compound] (Cbz-Leu-Leu-Leu-aldehyde)",–,–,protected
